Experimental data from article PMC8570591 (ACS catalysis, 2021).

Target: T1, EanB (Chlorobium limicola, UniProt B3ECE3)
T1 sequence (B3ECE3 1-457): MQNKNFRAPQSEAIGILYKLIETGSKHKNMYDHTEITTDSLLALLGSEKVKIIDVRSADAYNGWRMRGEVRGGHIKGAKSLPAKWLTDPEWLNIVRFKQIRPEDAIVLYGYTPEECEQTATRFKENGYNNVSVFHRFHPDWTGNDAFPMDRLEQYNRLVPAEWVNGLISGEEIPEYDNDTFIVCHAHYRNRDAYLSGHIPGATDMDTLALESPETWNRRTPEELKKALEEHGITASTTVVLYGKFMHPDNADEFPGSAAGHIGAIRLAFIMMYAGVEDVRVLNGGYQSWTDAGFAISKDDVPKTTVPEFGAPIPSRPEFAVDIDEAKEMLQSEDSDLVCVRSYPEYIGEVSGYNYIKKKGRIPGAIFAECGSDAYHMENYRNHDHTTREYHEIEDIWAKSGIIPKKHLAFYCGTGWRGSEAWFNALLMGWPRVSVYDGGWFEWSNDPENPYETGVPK
Assay: hercynine epsilon-C-H/D2O exchange kinetics by LC-MS, purified enzyme
Type: biochemical

Question: `C[N+](C)(C)[C@@H](Cc1cnc[nH]1)C(=O)[O-]` [compound 2, hercynine] was tested. Which Kd did it give?
Answer: 161 ± 18.6 µM
